Here are results for 16 molecules from patent US10717716B2, “1,3,4-oxadiazole derivative compounds as histone deacetylase 6 inhibitor, and the pharmaceutical composition comprising the same” (Chong Kun Dang Pharmaceutical Corp., priority 2015, dated 2020).

Molecules are shown by their SMILES. pIC50: −log10 of the molar value.

Assay [1] addresses T1, human recombinant HDAC1 (Homo sapiens, UniProt Q13547).
T1 construct: purchased Enzo Life Science BML-SE456
The assay is described as follows: HDAC1 enzyme activity inhibition assay (HDAC Fluorimetric Drug Discovery Kit). Type of assay: biochemical. The conditions noted are these: human recombinant HDAC1, Fluor de Lys substrate 10 μM, 30° C. 60 minutes. On the procedure: In order to examine the HDAC6 selectivity of the compounds of formula I of the present invention by HDAC1 and HDAC6 enzymatic activity inhibition assays, an experiment was performed using a conventional substance as a control.
HDAC enzyme activity was measured using a HDAC Fluorimetric Drug Discovery Kit (BML-AK511, 516, Enzo Life Science). For the HDAC1 enzyme activity test, human recombinant HDAC1 (BML-SE456) was used as an enzyme source, and Fluor de Lys®-“SIRT1 (BNL-KI177) was used as a substrate. A 5-fold dilution of the compound was seeded into a 96-well plate, and then 0.3 μg of the enzyme and 10 μM of the substrate were added to each well of the plate and allowed to react at 30° C. for 60 minutes. Then, Fluor de Lys®-Developer II (BML-KI176) was added thereto and allowed to react for 30 minutes, after which the fluorescence value (Ex 360, Em 460) was measured using a multi-plate reader (Flexstation 3, Molecular Device). The HDAC6 enzyme was tested using human recombinant HDAC6 (382180) (Calbiochem) according to the same protocol as the HDAC1 enzyme activity test method. Based on the resulting values, each IC5, value was calculated using GraphPad Prism4.0 program.

For assay [2], the target named is T2, human recombinant HDAC6 (Homo sapiens, UniProt Q9UBN7).
T2 construct: purchased Calbiochem 382180
T2 sequence (Q9UBN7 1-1215): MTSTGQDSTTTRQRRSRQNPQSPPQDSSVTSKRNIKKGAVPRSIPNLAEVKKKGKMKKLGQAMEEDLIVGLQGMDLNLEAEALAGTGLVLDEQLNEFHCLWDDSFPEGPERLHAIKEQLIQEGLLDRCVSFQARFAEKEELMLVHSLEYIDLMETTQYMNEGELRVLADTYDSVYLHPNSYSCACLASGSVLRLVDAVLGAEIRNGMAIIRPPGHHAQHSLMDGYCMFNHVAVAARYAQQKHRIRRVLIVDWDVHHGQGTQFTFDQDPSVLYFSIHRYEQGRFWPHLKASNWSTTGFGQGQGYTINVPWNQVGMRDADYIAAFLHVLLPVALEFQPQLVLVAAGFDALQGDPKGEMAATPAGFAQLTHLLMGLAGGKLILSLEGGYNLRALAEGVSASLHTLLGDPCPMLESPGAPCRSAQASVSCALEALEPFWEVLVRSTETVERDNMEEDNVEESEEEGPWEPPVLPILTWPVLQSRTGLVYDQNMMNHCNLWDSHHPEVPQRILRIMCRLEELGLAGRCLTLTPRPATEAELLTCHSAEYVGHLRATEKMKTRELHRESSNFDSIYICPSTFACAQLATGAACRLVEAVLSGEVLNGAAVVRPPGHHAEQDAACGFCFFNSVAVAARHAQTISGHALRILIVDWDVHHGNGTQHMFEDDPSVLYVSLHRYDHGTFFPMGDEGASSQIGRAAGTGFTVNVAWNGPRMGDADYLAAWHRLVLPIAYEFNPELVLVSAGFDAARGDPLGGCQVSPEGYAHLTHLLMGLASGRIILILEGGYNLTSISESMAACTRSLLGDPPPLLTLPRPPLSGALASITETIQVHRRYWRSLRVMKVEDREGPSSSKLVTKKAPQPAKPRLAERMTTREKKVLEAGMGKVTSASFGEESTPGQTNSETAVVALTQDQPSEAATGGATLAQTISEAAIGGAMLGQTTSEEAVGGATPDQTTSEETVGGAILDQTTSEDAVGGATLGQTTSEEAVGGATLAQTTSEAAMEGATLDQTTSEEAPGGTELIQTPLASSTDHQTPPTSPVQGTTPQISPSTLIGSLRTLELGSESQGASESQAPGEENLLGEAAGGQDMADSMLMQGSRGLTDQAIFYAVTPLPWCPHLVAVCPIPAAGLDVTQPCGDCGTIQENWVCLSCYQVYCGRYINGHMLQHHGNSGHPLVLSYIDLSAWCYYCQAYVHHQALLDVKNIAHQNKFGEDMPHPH
The experiment in a line: HDAC6 enzyme activity inhibition assay (HDAC Fluorimetric Drug Discovery Kit). Type of assay: biochemical. As to conditions: for HDAC6 selectivity (fold): HDAC6 over HDAC1; for pIC50: human recombinant HDAC6, same protocol as HDAC1, read-out: HDAC6. The method in brief: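 Fluorimetric deacetylase assay: 5-fold serial compound dilutions, 0.3 μg recombinant human enzyme (HDAC1 or HDAC6, same protocol), 10 μM Fluor de Lys-SIRT1 substrate, 60 min at 30 °C. Signal developed 30 min, measured at 360/460 nm; IC50 values derived.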

T1 sequence (Q13547 whole entry): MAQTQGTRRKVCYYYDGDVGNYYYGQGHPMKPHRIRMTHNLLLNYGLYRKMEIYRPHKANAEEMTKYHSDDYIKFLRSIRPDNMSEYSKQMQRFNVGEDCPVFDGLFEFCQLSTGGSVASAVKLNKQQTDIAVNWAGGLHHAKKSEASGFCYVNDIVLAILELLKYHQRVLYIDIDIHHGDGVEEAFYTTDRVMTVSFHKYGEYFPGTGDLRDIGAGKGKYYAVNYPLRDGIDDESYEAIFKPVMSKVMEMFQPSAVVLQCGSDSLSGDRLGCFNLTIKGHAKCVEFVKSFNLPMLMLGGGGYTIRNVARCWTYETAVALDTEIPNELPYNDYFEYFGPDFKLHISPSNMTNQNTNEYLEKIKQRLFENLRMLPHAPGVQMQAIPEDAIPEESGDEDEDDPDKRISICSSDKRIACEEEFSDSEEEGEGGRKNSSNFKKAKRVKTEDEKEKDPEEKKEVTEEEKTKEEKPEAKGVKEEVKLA

As for `O=C(N1CCOCC1)N(Cc1ccc(-c2nnc(C(F)(F)F)o2)cc1)c1ccccc1` [Compound 21249, N-phenyl-N-(4-(5-(trifluoromethyl)-1,3,4-oxadiazol-2-yl)benzyl)morpholine-4-carboxamide], the pIC50 in assay [1] was 5.00; in assay [2], 7.06. The “HDAC6 selectivity (fold)” value in assay [2] is recorded as 115 fold.

Consider `O=C(N1CCS(=O)(=O)CC1)N(Cc1ccc(-c2nnc(C(F)(F)F)o2)cc1)c1ccc(F)cc1` [Compound 21389, N-(4-Fluorophenyl)-N-(4-(5-(trifluoromethyl)-1,3,4-oxadiazol-2-yl)benzyl)thiomorpholine-4-carboxamide 1,1-dioxide], for which the pIC50 in assay [1] was 5.20; in assay [2] it was 7.03. In addition, the “HDAC6 selectivity (fold)” value in assay [2] was 68 fold.

Regarding `COc1ccc(N(Cc2ccc(-c3nnc(C(F)(F)F)o3)cc2)C(=O)N2CCS(=O)(=O)CC2)cc1` [Compound 21390, N-(4-methoxyphenyl)-N-(4-(5-(trifluoromethyl)-1,3,4-oxadiazol-2-yl)benzyl)thiomorpholine-4-carboxamide 1,1-dioxide], the pIC50 in assay [1] was 5.28. In addition, in assay [2], the “HDAC6 selectivity (fold)” value stood at 17 fold and the pIC50 was 6.50.

For the molecule `O=C(N1CCS(=O)(=O)CC1)N(Cc1ccc(-c2nnc(C(F)(F)F)o2)cc1)c1cccc(Br)c1` [Compound 21393, N-(3-bromophenyl)-N-(4-(5-(trifluoromethyl)-1,3,4-oxadiazol-2-yl)benzyl)thiomorpholine-4-carboxamide 1,1-dioxide], in assay [1], the pIC50 is 5.05. In assay [2], the “HDAC6 selectivity (fold)” value stood at 65 fold and the pIC50 is 6.86.

`O=C(N1CCS(=O)(=O)CC1)N(Cc1ccc(-c2nnc(C(F)(F)F)o2)cc1)c1cccc(-c2ccoc2)c1` [Compound 21435, N-(3-(furan-3-yl)phenyl)-N-(4-(5-(trifluoromethyl)-1,3,4-oxadiazol-2-yl)benzyl)thiomorpholine-4-carboxamide 1,1-dioxide]: the pIC50 in assay [1] is 5.47. For the same molecule, in assay [2], the “HDAC6 selectivity (fold)” value came to 12 fold and the pIC50 is 6.54.

Regarding `O=C(N1CCS(=O)(=O)CC1)N(Cc1ccc(-c2nnc(C(F)(F)F)o2)cc1)c1cccc(-c2cccnc2)c1` [Compound 21436, N-(3-(pyridin-3-yl)phenyl)-N-(4-(5-(trifluoromethyl)-1,3,4-oxadiazol-2-yl)benzyl)thiomorpholine-4-carboxamide 1,1-dioxide], the pIC50 was 5.24 in assay [1] and 6.36 in assay [2]. For the same molecule, the “HDAC6 selectivity (fold)” value in assay [2] is given as 13 fold.

`O=C(N1CCS(=O)(=O)CC1)N(Cc1ccc(-c2nnc(C(F)(F)F)o2)cc1)c1cccc(-c2ccc3c(c2)OCO3)c1` [Compound 21437, N-(3-(benzo[d][1,3]dioxol-5-yl)phenyl)-N-(4-(5-(trifluoromethyl)-1,3,4-oxadiazol-2-yl)benzyl)thiomorpholine-4-carboxamide 1,1-dioxide]: the pIC50 is 5.09 in assay [1] and 6.13 in assay [2]. For the same molecule, the “HDAC6 selectivity (fold)” value in assay [2] was 11 fold.

Turning to `Cn1ncc2ccc(-c3cccc(N(Cc4ccc(-c5nnc(C(F)(F)F)o5)cc4)C(=O)N4CCS(=O)(=O)CC4)c3)cc21` [Compound 21438, N-(3-(1-methyl-1H-indazol-6-yl)phenyl)-N-(4-(5-(trifluoromethyl)-1,3,4-oxadiazol-2-yl)benzyl)thiomorpholine-4-carboxamide 1,1-dioxide], the pIC50 in assay [1] was 5.57. Also, in assay [2], the “HDAC6 selectivity (fold)” value came to 4 fold and the pIC50 is 6.12.

As for `O=C(N1CCS(=O)(=O)CC1)N(Cc1ccc(-c2nnc(C(F)(F)F)o2)cc1)c1cccc(-c2ccccc2)c1` [Compound 21439, N-([1,1′-biphenyl]-3-yl)-N-(4-(5-(trifluoromethyl)-1,3,4-oxadiazol-2-yl)benzyl)thiomorpholine-4-carboxamide 1,1-dioxide], the figures for the pIC50 in assay [1] and in assay [2] were 5.21 and 6.00, respectively. Moreover, in assay [2], the “HDAC6 selectivity (fold)” value is listed as 6 fold.

As for `COc1cccc(N(Cc2ccc(-c3nnc(C(F)(F)F)o3)cc2)C(=O)N2CCS(=O)(=O)CC2)c1` [Compound 21441, N-(3-methoxyphenyl)-N-(4-(5-(trifluoromethyl)-1,3,4-oxadiazol-2-yl)benzyl)thiomorpholine-4-carboxamide 1,1-dioxide], the pIC50 in assay [1] was 5.60. In addition, in assay [2], the “HDAC6 selectivity (fold)” value was 18 fold and the pIC50 was 6.86.

Regarding `Cc1cccc(N(Cc2ccc(-c3nnc(C(F)(F)F)o3)cc2)C(=O)N2CCS(=O)(=O)CC2)c1` [Compound 21442, N-(m-tolyl)-N-(4-(5-(trifluoromethyl)-1,3,4-oxadiazol-2-yl)benzyl)thiomorpholine-4-carboxamide 1,1-dioxide], in assay [1], the pIC50 was 5.06. Also, in assay [2], the “HDAC6 selectivity (fold)” value is 77 fold and the pIC50 is 6.94.

As for `CS(=O)(=O)c1ccc(N(Cc2ccc(-c3nnc(C(F)(F)F)o3)cc2)C(=O)N2CCOCC2)cc1` [Compound 21443, N-(4-(methylsulfonyl)phenyl)-N-(4-(5-(trifluoromethyl)-1,3,4-oxadiazol-2-yl)benzyl)morpholine-4-carboxamide], in assay [1], the pIC50 is 5.13. In assay [2], the “HDAC6 selectivity (fold)” value is given as 20 fold and the pIC50 was 6.44.

Turning to `O=C(N1CCOCC1)N(Cc1ccc(-c2nnc(C(F)F)o2)cc1F)c1cccs1` [Compound 22019, N-(4-(5-(Difluoromethyl)-1,3,4-oxadiazol-2-yl)-2-fluorobenzyl)-N-(thiophen-2-yl)morpholine-4-carboxamide], in assay [2], the “HDAC6 selectivity (fold)” value was found to be 79 fold and the pIC50 is 6.90.

As to `O=C(N1CCS(=O)(=O)CC1)N(Cc1ccc(-c2nnc(C(F)F)o2)cc1F)c1cccs1` [Compound 22020, N-(4-(5-(Difluoromethyl)-1,3,4-oxadiazol-2-yl)-2-fluorobenzyl)-N-(thiophen-2-yl)thiomorpholine-4-carboxamide 1,1-dioxide], in assay [2], the “HDAC6 selectivity (fold)” value is 73 fold and the pIC50 is 6.86.

Take `O=C(N1CCS(=O)(=O)CC1)N(Cc1ccc(-c2nnc(C(F)F)o2)cc1F)c1ccsc1` [Compound 22021, N-(4-(5-(Difluoromethyl)-1,3,4-oxadiazol-2-yl)-2-fluorobenzyl)-N-(thiophen-3-yl)thiomorpholine-4-carboxamide 1,1-dioxide]: in assay [2], the “HDAC6 selectivity (fold)” value was 101 fold and the pIC50 is 7.00.

`CCN1CCN(Cc2cccc(N(Cc3ccc(-c4nnc(C(F)F)o4)cc3F)C(=O)N3CCS(=O)(=O)CC3)c2)CC1` [Compound 22024, N-(4-(5-(difluoromethyl)-1,3,4-oxadiazol-2-yl)-2-fluorobenzyl)-N-(3-((4-ethylpiperazin-1-yl)methyl)phenyl)thiomorpholine-4-carboxamide 1,1-dioxide]: in assay [2], the “HDAC6 selectivity (fold)” value is 36 fold and the pIC50 is 6.55.
